Experimental data: ChEMBL document CHEMBL1629647, “Preclinical evaluation of GS-9160, a novel inhibitor of human immunodeficiency virus type 1 integrase” (Antimicrob Agents Chemother, 2009)
One block for each compound: values may come before it.

Tests used:
[1] = tested on: Human immunodeficiency virus 1; assay: Selectivity ratio of EC50 for antiviral activity against HIV1 harboring G140S and Q148H mutation in catalytic core domain of integrase to EC50 for antiviral activity against wild-type HIV1 3B; format: functional
[2] = tested on: Human immunodeficiency virus 1; assay: Selectivity ratio of EC50 for antiviral activity against HIV1 harboring Q148K mutation in catalytic core domain of integrase to EC50 for antiviral activity against wild-type HIV1 3B; format: functional
[3] = tested on: Human immunodeficiency virus 1; assay: Selectivity ratio of EC50 for antiviral activity against HIV1 harboring E138K and Q148K mutation in catalytic core domain of integrase to EC50 for antiviral activity against wild-type HIV1 3B; format: functional
[4] = tested on: Human immunodeficiency virus 1; assay: Selectivity ratio of EC50 for antiviral activity against NRTI-resistant HIV1 harboring RTM184V mutant gene to EC50 for antiviral activity against wild-type HIV1 3B; format: functional
[5] = tested on: Human immunodeficiency virus 1; assay: Selectivity ratio of EC50 for antiviral activity against HIV1 harboring L74M mutation in catalytic core domain of integrase to EC50 for antiviral activity against wild-type HIV1 3B; format: functional
[6] = tested on: Human immunodeficiency virus 1; assay: Selectivity ratio of EC50 for antiviral activity against NRTI-resistant HIV1 harboring RT-6TAMs mutant gene to EC50 for antiviral activity against wild-type HIV1 3B; format: functional
[7] = tested on: Human immunodeficiency virus 1; assay: Selectivity ratio of EC50 for antiviral activity against HIV1 harboring E92V, G140S and V151A mutation in catalytic core domain of integrase to EC50 for antiviral activity against wild-type HIV1 3B; format: functional
[8] = tested on: Human immunodeficiency virus 1; assay: Selectivity ratio of EC50 for antiviral activity against HIV1 harboring N155H mutation in catalytic core domain of integrase to EC50 for antiviral activity against wild-type HIV1 3B; format: functional
[9] = tested on: Human immunodeficiency virus 1; assay: Antiviral activity against HIV1 3B infected in human MT-2 cells by two fold dilution method in presence of 10% FBS; format: functional, organism-based; details: Human immunodeficiency virus 1, 3B, MT2
[10] = tested on: Human immunodeficiency virus 1; assay: Selectivity ratio of EC50 for antiviral activity against NRTI-resistant HIV1 harboring RTK65R mutant gene to EC50 for antiviral activity against wild-type HIV1 3B; format: functional
[11] = tested on: Human immunodeficiency virus 1; assay: Selectivity ratio of EC50 for antiviral activity against HIV1 harboring E92V and V151A mutation in catalytic core domain of integrase to EC50 for antiviral activity against wild-type HIV1 3B; format: functional
[12] = tested on: Human immunodeficiency virus 1; assay: Selectivity ratio of EC50 for antiviral activity against HIV1 harboring E138K mutation in catalytic core domain of integrase to EC50 for antiviral activity against wild-type HIV1 3B; format: functional
[13] = tested on: Human immunodeficiency virus 1; assay: Selectivity ratio of EC50 for antiviral activity against HIV1 harboring G140S mutation in catalytic core domain of integrase to EC50 for antiviral activity against wild-type HIV1 3B; format: functional
[14] = tested on: Human immunodeficiency virus 1; assay: Selectivity ratio of EC50 for antiviral activity against PI-resistant HIV1 harboring […], L90M mutant gene to EC50 for antiviral activity against wild-type HIV1 3B; format: functional
[15] = tested on: Human immunodeficiency virus 1; assay: Selectivity ratio of EC50 for antiviral activity against HIV1 harboring T66I mutation in catalytic core domain of integrase to EC50 for antiviral activity against wild-type HIV1 3B; format: functional
[16] = tested on: Human immunodeficiency virus 1; assay: Selectivity ratio of EC50 for antiviral activity against NNRTI-resistant HIV1 harboring RTK103N mutant gene to EC50 for antiviral activity against wild-type HIV1 3B; format: functional
[17] = tested on: Human immunodeficiency virus 1; assay: Selectivity ratio of EC50 for antiviral activity against HIV1 harboring N155S mutation in catalytic core domain of integrase to EC50 for antiviral activity against wild-type HIV1 3B; format: functional
[18] = tested on: Human immunodeficiency virus 1; assay: Selectivity ratio of EC50 for antiviral activity against PI-resistant HIV1 harboring […], V82A and L90M mutant gene to EC50 for antiviral activity against wild-type HIV1 3B; format: functional
[19] = tested on: Human immunodeficiency virus 1; assay: Selectivity ratio of EC50 for antiviral activity against HIV1 harboring E92V mutation in catalytic core domain of integrase to EC50 for antiviral activity against wild-type HIV1 3B; format: functional
[20] = tested on: Human immunodeficiency virus 1; assay: Selectivity ratio of EC50 for antiviral activity against HIV1 harboring E92Q mutation in catalytic core domain of integrase to EC50 for antiviral activity against wild-type HIV1 3B; format: functional
[21] = tested on: Human immunodeficiency virus 1; assay: Selectivity ratio of EC50 for antiviral activity against HIV1 harboring L74M and E92V mutation in catalytic core domain of integrase to EC50 for antiviral activity against wild-type HIV1 3B; format: functional
[22] = tested on: Human immunodeficiency virus 1; assay: Selectivity ratio of EC50 for antiviral activity against HIV1 harboring V151A mutation in catalytic core domain of integrase to EC50 for antiviral activity against wild-type HIV1 3B; format: functional
[23] = tested on: Human immunodeficiency virus 1; assay: Selectivity ratio of EC50 for antiviral activity against NNRTI-resistant HIV1 harboring RTY181C mutant gene to EC50 for antiviral activity against wild-type HIV1 3B; format: functional
[24] = tested on: Human immunodeficiency virus 1; assay: Antiviral activity against HIV1 3B infected in human MT-4 cells by two fold dilution method in presence of 10% FBS; format: functional, organism-based; details: Human immunodeficiency virus 1, 3B, MT4
[25] = tested on: Human immunodeficiency virus 1; assay: Antiviral activity against HIV1 3B infected in human MT-2 cells by two fold dilution method in presence of 10% FBS, HSA and alpha1-AGP; format: functional, organism-based; details: Human immunodeficiency virus 1, 3B, MT2
[26] = Cytotoxicity against human uninfected MT2 cells by three fold dilution method in presence of 10% FBS
[27] = Cytotoxicity against human MT4 cells infected with HIV1 3B by three fold dilution method in presence of 10% FBS; format: cell-based; details: MT4 cells infected with HIV-1 3B

Structure (SMILES): CC(C)OC(=O)OCOP(=O)(CO[C@H](C)Cn1cnc2c(N)ncnc21)OCOC(=O)OC(C)C.O=C(O)/C=C/C(=O)O [TENOFOVIR DISOPROXIL FUMARATE]
Ratio EC50 [1]: 0.3
Ratio EC50 [2]: 1
Ratio EC50 [3]: 2
Ratio EC50 [4]: 1
Ratio EC50 [5]: 1
Ratio EC50 [6]: 9
Ratio EC50 [7]: 2
Ratio EC50 [8]: 2
EC50 [9]: 6.8 nM
Ratio EC50 [10]: 4
Ratio EC50 [11]: 2
Ratio EC50 [12]: 2
Ratio EC50 [13]: 1
Ratio EC50 [14]: 1
Ratio EC50 [15]: 1
Ratio EC50 [16]: 1
Ratio EC50 [17]: 2
Ratio EC50 [18]: 1
Ratio EC50 [19]: 2
Ratio EC50 [20]: 1
Ratio EC50 [21]: 1
Ratio EC50 [22]: 2
Ratio EC50 [23]: 1

EC50 [24]: 8 nM
EC50 [25]: 18 nM
EC50 [9]: 3 nM
Structure (SMILES): Cc1nnc(C(=O)NC(C)(C)c2nc(C(=O)NCc3ccc(F)cc3)c(O)c(=O)n2C)o1
CC50 [26]: > 100000 nM
CC50 [27]: 58200 nM

Structure (SMILES): Nc1nc(=O)n([C@@H]2CS[C@H](CO)O2)cc1F [EMTRICITABINE]
Ratio EC50 [1]: 0.8
Ratio EC50 [2]: 2
Ratio EC50 [3]: 2
Ratio EC50 [4]: >55
Ratio EC50 [5]: 1
Ratio EC50 [6]: 23
Ratio EC50 [7]: 2
Ratio EC50 [8]: 2
EC50 [9]: 323 nM
Ratio EC50 [10]: 26
Ratio EC50 [11]: 4
Ratio EC50 [12]: 1
Ratio EC50 [13]: 1
Ratio EC50 [14]: 1
Ratio EC50 [15]: 1
Ratio EC50 [16]: 1
Ratio EC50 [17]: 3
Ratio EC50 [18]: 1
Ratio EC50 [19]: 1
Ratio EC50 [20]: 2
Ratio EC50 [21]: 2
Ratio EC50 [22]: 3
Ratio EC50 [23]: 0.4

Structure (SMILES): CC(C)c1nc(COC(N)=O)n(Cc2ccncc2)c1Sc1cc(Cl)cc(Cl)c1 [CAPRAVIRINE]
Ratio EC50 [1]: 0.2
Ratio EC50 [2]: 1
Ratio EC50 [3]: 3
Ratio EC50 [4]: 1
Ratio EC50 [5]: 1
Ratio EC50 [6]: 762
Ratio EC50 [7]: 3
Ratio EC50 [8]: 6
EC50 [9]: 0.2 nM
Ratio EC50 [10]: 0.4
Ratio EC50 [11]: 2
Ratio EC50 [12]: 3
Ratio EC50 [13]: 2
Ratio EC50 [14]: 1
Ratio EC50 [15]: 2
Ratio EC50 [16]: 0
Ratio EC50 [17]: 6
Ratio EC50 [18]: 1
Ratio EC50 [19]: 3
Ratio EC50 [20]: 1
Ratio EC50 [21]: 3
Ratio EC50 [22]: 4
Ratio EC50 [23]: 89
